Laboratory results from PMC7756582, “Prodrugs of γ‐Alkyl‐Modified Nucleoside Triphosphates: Improved Inhibition of HIV Reverse Transcriptase” (Angewandte Chemie (International Ed. in English), 2020).

Target: T1, human DNA polymerase α (Homo sapiens, UniProt P09884)
T1 construct: purchased Chimerx
T1 sequence (P09884 1-1462): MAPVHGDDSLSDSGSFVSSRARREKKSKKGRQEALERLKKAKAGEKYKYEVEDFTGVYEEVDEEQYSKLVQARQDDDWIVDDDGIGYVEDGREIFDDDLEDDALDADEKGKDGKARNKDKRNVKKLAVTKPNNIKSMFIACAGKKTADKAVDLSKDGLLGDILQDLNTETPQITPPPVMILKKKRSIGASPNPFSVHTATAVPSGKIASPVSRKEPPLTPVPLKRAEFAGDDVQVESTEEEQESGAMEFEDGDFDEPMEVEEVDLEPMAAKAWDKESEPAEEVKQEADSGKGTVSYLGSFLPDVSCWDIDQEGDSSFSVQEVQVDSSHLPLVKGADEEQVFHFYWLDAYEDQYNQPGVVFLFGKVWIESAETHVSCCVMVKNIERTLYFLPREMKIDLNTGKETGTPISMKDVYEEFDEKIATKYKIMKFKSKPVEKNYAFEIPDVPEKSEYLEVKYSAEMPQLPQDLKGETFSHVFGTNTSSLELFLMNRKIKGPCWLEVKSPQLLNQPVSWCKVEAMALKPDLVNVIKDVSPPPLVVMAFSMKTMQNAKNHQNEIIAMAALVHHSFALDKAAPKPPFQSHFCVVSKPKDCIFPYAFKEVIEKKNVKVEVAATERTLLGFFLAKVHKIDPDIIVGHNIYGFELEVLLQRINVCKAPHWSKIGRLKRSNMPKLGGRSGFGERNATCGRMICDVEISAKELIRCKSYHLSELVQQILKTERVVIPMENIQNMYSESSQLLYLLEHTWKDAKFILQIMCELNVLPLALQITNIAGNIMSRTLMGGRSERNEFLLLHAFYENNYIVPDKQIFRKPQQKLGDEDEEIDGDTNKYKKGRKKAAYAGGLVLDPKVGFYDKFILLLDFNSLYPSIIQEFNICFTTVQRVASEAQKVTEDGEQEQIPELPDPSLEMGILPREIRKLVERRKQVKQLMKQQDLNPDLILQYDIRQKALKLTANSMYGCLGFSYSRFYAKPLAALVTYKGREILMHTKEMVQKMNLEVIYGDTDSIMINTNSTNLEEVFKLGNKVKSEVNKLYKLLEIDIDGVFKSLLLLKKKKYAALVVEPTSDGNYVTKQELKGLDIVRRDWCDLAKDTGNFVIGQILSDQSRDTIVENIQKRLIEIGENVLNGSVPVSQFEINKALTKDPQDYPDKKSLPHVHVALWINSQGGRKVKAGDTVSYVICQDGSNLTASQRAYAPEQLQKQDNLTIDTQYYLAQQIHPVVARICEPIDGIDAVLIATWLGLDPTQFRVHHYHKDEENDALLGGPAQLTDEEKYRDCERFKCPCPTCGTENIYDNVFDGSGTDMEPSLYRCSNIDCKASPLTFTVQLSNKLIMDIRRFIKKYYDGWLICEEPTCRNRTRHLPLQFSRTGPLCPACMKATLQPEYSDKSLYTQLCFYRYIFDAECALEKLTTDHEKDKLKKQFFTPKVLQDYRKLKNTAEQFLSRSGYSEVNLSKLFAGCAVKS
Assay: Primer extension assay with human DNA polymerase α
Format: biochemical
Conditions: dNTPs 250 μM, Pol α 4 U, 60 min
Description: Two different set‐ups have been used. First, a mixture of dATP, dCTP, dGTP, and γ‐alkyl‐TTP (N*) or ‐d4TTP (T*) was used as a mixture. The results obtained from these experiments were compared to those in which just γ‐alkyl‐TTP (N) or d4TTP (T) was used. In each experiment a primer extension without added polymerase (negative control, ‐ lane) and an experiment in which all four canonical NTPs were added (positive control, +lane) were used as controls.
Anti-HIV activity assay: Inhibition of HIV-1(IIIB)- and HIV-2(ROD)-induced cytopathicity in wild-type CEM/0 and thymidine kinase-deficient CEM/TK- cell cultures was measured in microtiter 96-well plates containing ~3·105 CEM cells/mL infected with 100 CCID50 of HIV per milliliter and containing appropriate dilutions of the test compounds. After 4−5 days of incubation at 37 °C in a CO2-controlled humidified atmosphere, CEM giant (syncytium) cell formation was examined microscopically. The EC50 (50% effective concentration) was defined as the compound concentration required to inhibit HIV-induced giant cell formation by 50%. […]
2) For HIV- RT assay: The final assay solution (10 µL) consists of 50 mM Tris-HCl (pH 8.6 at 22 °C), 10 mM MgCl2, 40mM KCl, dNTPs 66 µM, HIV RT 6 U, Hybrid 0.32 µM in a reaction volume of 10 µL, incubated 37 °C for 15 min, 80 °C for 3 min; 50 mA, 45w for 4 h. […] The result was visualized by fluorescence imaging. […]

## Cc1cn(C2C=CC(COP(=O)(O)OP(=O)(O)OP(=O)(O)O)O2)c(=O)[nH]c1=O (stereo not shown) [2 t, d4TTP, reference compound]
  primer extension by DNA polymerase α (substrate properties): substrate
